The structures appear in SMILES notation.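 Grown in 96-well plates, cells were treated for 48 hours with each compound at five concentrations. Insufficient inhibition: endpoint recorded as highest concentration tested. GI50 = concentration required for 50% inhibition of growth. TGI is the concentration that stops growth completely.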

Among the test systems are SK-MEL-2 melanoma; 786-0 renal; CCRF-CEM leukemia; OVCAR-4 ovarian; SNB-75 CNS; HOP-92 NSCLC; HOP-62 NSCLC; PC-3 prostate; EKVX NSCLC; UACC-257 melanoma.
Assay in all cases: DTP human tumour cell line panel, 48 h

On to `NC(=NC1CCCCCCC1)c1ccc(N2CCN(c3ccc(C(N)=NC4CCCCCCC4)cc3)CC2)cc1`, for which the GI50 in the assay on SK-MEL-2 melanoma is 12 µM; in the assay with 786-0 renal, 18.9 µM; in the assay with CCRF-CEM leukemia, 89.8 µM; with OVCAR-4 ovarian, 24.6 µM; in the assay on SNB-75 CNS, 3.7 µM; with HOP-92 NSCLC, 25.1 µM. For the same molecule, the GI50 in the assay on HOP-62 NSCLC is 14.4 µM; in the assay on PC-3 prostate, 22.6 µM. In addition, the TGI with SK-MEL-2 melanoma was over 100 µM; in the assay with 786-0 renal, over 100 µM; with CCRF-CEM leukemia, over 100 µM; in the assay on OVCAR-4 ovarian, over 100 µM; in the assay with SNB-75 CNS, 15.7 µM; with HOP-92 NSCLC it was 79.9 µM. Moreover, the TGI was found to be 62.8 µM in the assay on HOP-62 NSCLC and 46.8 µM in the assay with PC-3 prostate.
`CN(CC(=O)O)c1ccc(/C=C/c2ccnc3ccccc23)cc1`: the TGI was 30.8 µM with EKVX NSCLC; 44.6 µM in the assay on SK-MEL-2 melanoma; over 100 µM with 786-0 renal; 72.5 µM in the assay on CCRF-CEM leukemia; 86.8 µM in the assay with SNB-75 CNS; over 100 µM with HOP-92 NSCLC. Also, the TGI was over 100 µM with HOP-62 NSCLC, over 100 µM with PC-3 prostate and 65.4 µM with UACC-257 melanoma.
On to `CC(C)C[C@H](NC(=O)[C@H]1O[C@@H]1C(=O)O)C(=O)NCCc1ccc(O)cc1`, for which the GI50 in the assay with EKVX NSCLC, in the assay with SK-MEL-2 melanoma, with 786-0 renal, with CCRF-CEM leukemia, in the assay with SNB-75 CNS and in the assay on HOP-92 NSCLC was over 100 µM each time. The GI50 in the assay on HOP-62 NSCLC, with PC-3 prostate and in the assay with UACC-257 melanoma was over 100 µM each time. The TGI with EKVX NSCLC, in the assay with SK-MEL-2 melanoma, with 786-0 renal, in the assay with CCRF-CEM leukemia, with SNB-75 CNS and in the assay with HOP-92 NSCLC was over 100 µM throughout. The concentration for total growth inhibition (TGI) with HOP-62 NSCLC, in the assay on PC-3 prostate and with UACC-257 melanoma was over 100 µM throughout.
Take `CC(C)(O)C1CCC(Nc2ccc3ncc(-c4cccc(C(F)(F)F)c4)n3n2)CC1` (stereo not drawn): the GI50 was 3.82 µM in the assay on EKVX NSCLC; 2.13 µM in the assay with SK-MEL-2 melanoma; 1.94 µM in the assay on 786-0 renal; 0.946 µM in the assay on CCRF-CEM leukemia; 2.62 µM in the assay on OVCAR-4 ovarian; 1.77 µM in the assay with SNB-75 CNS. For the same molecule, the GI50 is 2.37 µM with HOP-62 NSCLC and 0.815 µM in the assay on PC-3 prostate. Besides, the TGI in the assay on EKVX NSCLC is over 100 µM; with SK-MEL-2 melanoma, 4.82 µM; in the assay on 786-0 renal, 4.64 µM; with CCRF-CEM leukemia, 7.89 µM; in the assay on OVCAR-4 ovarian it was 12.5 µM; with SNB-75 CNS, 8.99 µM. Besides, the TGI in the assay with HOP-62 NSCLC is 11.8 µM; in the assay on PC-3 prostate it was 12.7 µM.
On to `COc1ccc(-c2cnnn2-c2cc(OC)c3c(c2)OCO3)cc1`, for which the GI50 is 0.0955 µM with SK-MEL-2 melanoma; 0.544 µM in the assay on 786-0 renal; 0.148 µM in the assay on CCRF-CEM leukemia; 5.9 µM in the assay with OVCAR-4 ovarian; 0.0741 µM with SNB-75 CNS; 0.187 µM with HOP-92 NSCLC. Further, the GI50 with HOP-62 NSCLC was 0.113 µM; in the assay with PC-3 prostate, 0.167 µM; in the assay with UACC-257 melanoma, 35.4 µM. Also, the TGI in the assay with SK-MEL-2 melanoma is 90.4 µM; in the assay with 786-0 renal, over 36.6 µM; in the assay on CCRF-CEM leukemia, over 100 µM; in the assay with OVCAR-4 ovarian, over 100 µM; in the assay with SNB-75 CNS, over 100 µM; in the assay with HOP-92 NSCLC, 24.8 µM. Also, the TGI with HOP-62 NSCLC, with PC-3 prostate and with UACC-257 melanoma was over 100 µM each time.
Consider `c1cc(CCN2CCCCC2)ccn1`, for which the TGI in the assay with EKVX NSCLC, with SK-MEL-2 melanoma, in the assay with 786-0 renal, in the assay with OVCAR-4 ovarian, in the assay on SNB-75 CNS and with HOP-92 NSCLC was over 100 µM in each case. Also, the TGI in the assay with HOP-62 NSCLC, with PC-3 prostate and in the assay with UACC-257 melanoma was over 100 µM in each case.
In the case of `Cc1ccc2c(c1C)-c1c(ccc(C)c1C)C(=O)C2=O`, the TGI in the assay on EKVX NSCLC turned out to be 6.54 µM; with SK-MEL-2 melanoma it was 3.1 µM; in the assay on 786-0 renal, 1.8 µM; with CCRF-CEM leukemia it was 0.991 µM; with OVCAR-4 ovarian, 0.554 µM; with HOP-92 NSCLC, 5.02 µM. Further, the results for the TGI with HOP-62 NSCLC, in the assay with PC-3 prostate and in the assay on UACC-257 melanoma were 9.32 µM, 7.3 µM and 3.48 µM, respectively.
Consider `C[C@]12CC[C@@H]3c4ccc(O)cc4CC[C@H]3[C@@H]1CC[C@@H]2NS(=O)(=O)c1cccc(C(F)(F)F)c1`, for which the GI50 in the assay with SK-MEL-2 melanoma is 3.7 µM; with 786-0 renal it was 3.06 µM; in the assay with CCRF-CEM leukemia it was 3.46 µM; in the assay with OVCAR-4 ovarian, 2.95 µM; in the assay with SNB-75 CNS it was 2.98 µM; with HOP-92 NSCLC, 1.94 µM. The GI50 in the assay on HOP-62 NSCLC is 5.18 µM; in the assay with PC-3 prostate, 2.78 µM; with UACC-257 melanoma, 3.54 µM. Besides, the TGI in the assay with SK-MEL-2 melanoma was determined as 13 µM; in the assay on 786-0 renal, 8.95 µM; in the assay with CCRF-CEM leukemia, 24.1 µM; in the assay on OVCAR-4 ovarian, 12.4 µM; in the assay on SNB-75 CNS, 15.5 µM; in the assay on HOP-92 NSCLC it was 7.81 µM. In addition, the TGI in the assay with HOP-62 NSCLC came to 17.9 µM; in the assay on PC-3 prostate, 13.9 µM; in the assay on UACC-257 melanoma, 15.7 µM.
On to `O=C1/C(=C/c2ccc([N+](=O)[O-])o2)Oc2ccc(Br)cc21`, for which the GI50 is 2.24 µM in the assay on SK-MEL-2 melanoma; 2.47 µM with 786-0 renal; 2 µM with CCRF-CEM leukemia; 2.37 µM in the assay with OVCAR-4 ovarian; 15.2 µM in the assay on SNB-75 CNS; 1.52 µM with HOP-92 NSCLC. For the same molecule, the GI50 in the assay on HOP-62 NSCLC was 15 µM; in the assay on PC-3 prostate it was 3.52 µM; in the assay with UACC-257 melanoma, 2 µM. Also, the TGI stood at 4.43 µM in the assay with SK-MEL-2 melanoma; 5.29 µM in the assay with 786-0 renal; 4.97 µM in the assay with CCRF-CEM leukemia; 6.18 µM in the assay on OVCAR-4 ovarian; 52.9 µM in the assay on SNB-75 CNS; 3.1 µM with HOP-92 NSCLC. The values for the TGI in the assay on HOP-62 NSCLC, with PC-3 prostate and in the assay with UACC-257 melanoma were 34.4 µM, 15.2 µM and 4.38 µM, respectively.
Turning to `NC(=O)c1cc([N+](=O)[O-])c(Cl)c([N+](=O)[O-])c1`, the GI50 in the assay with EKVX NSCLC is 17.4 µM; in the assay on SK-MEL-2 melanoma it was 13.7 µM; with 786-0 renal it was 1.96 µM; with OVCAR-4 ovarian it was 1.91 µM; in the assay on SNB-75 CNS, 4.63 µM; with HOP-92 NSCLC it was 1.96 µM. For the same molecule, the GI50 in the assay with HOP-62 NSCLC was 5.49 µM; with PC-3 prostate, 1.91 µM; in the assay with UACC-257 melanoma, 3.87 µM. Besides, the TGI with EKVX NSCLC was determined as 35.7 µM; in the assay with SK-MEL-2 melanoma it was 27.8 µM; in the assay with 786-0 renal it was 3.56 µM; in the assay with OVCAR-4 ovarian, 3.9 µM; with SNB-75 CNS, 17.8 µM; in the assay with HOP-92 NSCLC it was 4.18 µM. Also, the concentration for total growth inhibition (TGI) in the assay with HOP-62 NSCLC stood at 17.8 µM; with PC-3 prostate, 4.26 µM; in the assay with UACC-257 melanoma, 15 µM.
In the case of `CCc1ccccc1N1CCN(C(=O)c2cc(OC)c(OC)c(OC)c2)CC1`, the TGI in the assay on EKVX NSCLC was 20.9 µM; in the assay on SK-MEL-2 melanoma it was 2.78 µM; in the assay on 786-0 renal, over 100 µM; in the assay with CCRF-CEM leukemia, over 100 µM; with SNB-75 CNS, over 100 µM; with HOP-92 NSCLC, 12.3 µM. Further, the TGI in the assay on HOP-62 NSCLC was over 46.2 µM; in the assay with PC-3 prostate, over 9.26 µM; in the assay with UACC-257 melanoma, over 73.2 µM.
Turning to `Cn1c(=O)c(Oc2ccc(F)cc2F)cc2cnc(NC(CO)CO)nc21`, the GI50 in the assay with SK-MEL-2 melanoma is over 25 µM; with 786-0 renal it was over 25 µM; in the assay with CCRF-CEM leukemia it was over 25 µM; in the assay on OVCAR-4 ovarian, over 25 µM; in the assay with SNB-75 CNS, over 25 µM; in the assay with HOP-92 NSCLC, 14.7 µM. For the same molecule, the GI50 with HOP-62 NSCLC, in the assay with PC-3 prostate and in the assay on UACC-257 melanoma was over 25 µM each time. In addition, the TGI in the assay on SK-MEL-2 melanoma, in the assay on 786-0 renal, in the assay on CCRF-CEM leukemia, in the assay on OVCAR-4 ovarian, in the assay on SNB-75 CNS and in the assay with HOP-92 NSCLC was over 25 µM each time. The TGI with HOP-62 NSCLC, in the assay on PC-3 prostate and in the assay on UACC-257 melanoma was over 25 µM throughout.
For `O=C1Nc2ccccc2C1Cc1ccc([N+](=O)[O-])cc1` (stereo not drawn), the TGI in the assay on EKVX NSCLC, with SK-MEL-2 melanoma, with 786-0 renal, in the assay on CCRF-CEM leukemia, in the assay with OVCAR-4 ovarian and in the assay with SNB-75 CNS was over 100 µM in each case. In addition, the TGI with HOP-62 NSCLC, with PC-3 prostate and with UACC-257 melanoma was over 100 µM each time.
In the case of `N#Cc1cccc(C(=O)Nc2cccc(NC(=O)c3cccc(C#N)c3)c2)c1`, the GI50 with EKVX NSCLC is over 100 µM; in the assay with SK-MEL-2 melanoma, over 100 µM; in the assay on 786-0 renal it was 33.4 µM; in the assay with OVCAR-4 ovarian, over 100 µM; in the assay with SNB-75 CNS, over 100 µM; in the assay with HOP-92 NSCLC, 60.4 µM. Further, the GI50 was 33.5 µM in the assay on HOP-62 NSCLC, 77.6 µM in the assay with PC-3 prostate and over 100 µM in the assay with UACC-257 melanoma. The TGI in the assay on EKVX NSCLC, in the assay with SK-MEL-2 melanoma, in the assay with 786-0 renal, with OVCAR-4 ovarian, with SNB-75 CNS and in the assay with HOP-92 NSCLC was over 100 µM each time. In addition, the figures for the TGI with HOP-62 NSCLC, in the assay with PC-3 prostate and in the assay on UACC-257 melanoma were 74 µM, over 100 µM and over 100 µM, respectively.

Broadly, the GI50 is the concentration that inhibits growth by half. For orientation: TGI means the concentration giving total growth inhibition. The low end stands for greater sensitivity of the cells, the high end for lower sensitivity of the cells.
